Experiments:
Assay in all cases: whole plant or invertebrate
Type in all cases: functional
Details in all cases: Raphanus sativus, Japanese White, 120 h
Radish [1] = system: Radish
Description: Herbicidal activity against Raphanus sativus var.Japanese White (radish) assessed as inhibition of seed germination at 200 ppm at 25 degC measured after 5 days

Radish [2] = system: Radish; remark: listed apart in the source
Description: Herbicidal activity against Raphanus sativus var.Japanese White (radish) assessed as inhibition of seed germination at 100 ppm at 25 degC measured after 5 days

Radish [3] = system: Radish; remark: listed apart in the source
Description: Herbicidal activity against Raphanus sativus var.Japanese White (radish) assessed as inhibition of seed germination at 50 ppm at 25 degC measured after 5 days

With `O=C(/C=C/c1ccccc1[N+](=O)[O-])Nc1ccccc1` the inhibition at 200 ppm (Radish [1]) was 100%, the inhibition at 100 ppm (Radish [2]) was 86.7% and the inhibition at 50 ppm (Radish [3]) was 73.3%.

Compound `COc1ccc(/C=C/C(=O)Nc2ccc(C)cc2)cc1` has an inhibition at 200 ppm (Radish [1]) of 100%, an inhibition at 100 ppm (Radish [2]) of 93.3% and an inhibition at 50 ppm (Radish [3]) of 70%.

`O=C(O)/C=C/c1ccccc1[N+](=O)[O-]` gave an inhibition at 200 ppm (Radish [1]) of 100%, an inhibition at 100 ppm (Radish [2]) of 86.7% and an inhibition at 50 ppm (Radish [3]) of 70%.

`O=C(/C=C/c1ccccc1[N+](=O)[O-])Nc1ccccc1Cl` was tested, and the inhibition at 200 ppm (Radish [1]) was 100%, the inhibition at 100 ppm (Radish [2]) was 93.3% and the inhibition at 50 ppm (Radish [3]) was 86.7%.

Work on `O=C(/C=C/c1cccc([N+](=O)[O-])c1)Nc1ccccc1Cl` yielded an inhibition at 200 ppm (Radish [1]) of 100%, an inhibition at 100 ppm (Radish [2]) of 93.3% and an inhibition at 50 ppm (Radish [3]) of 83.3%.

Compound `O=C(/C=C/c1ccc([N+](=O)[O-])cc1)Nc1ccccc1Cl` has an inhibition at 200 ppm (Radish [1]) of 100%, an inhibition at 100 ppm (Radish [2]) of 86.7% and an inhibition at 50 ppm (Radish [3]) of 80%.

Work on `O=C(/C=C/c1cccc(Cl)c1)Nc1ccccc1Cl` yielded an inhibition at 200 ppm (Radish [1]) of 76.7%, an inhibition at 100 ppm (Radish [2]) of 53.3% and an inhibition at 50 ppm (Radish [3]) of 33.3%.

`COc1ccc(/C=C/C(=O)Nc2ccccc2Cl)cc1` gave an inhibition at 200 ppm (Radish [1]) of 96.7%, an inhibition at 100 ppm (Radish [2]) of 83.3% and an inhibition at 50 ppm (Radish [3]) of 76.7%.

In the case of `O=C(/C=C/c1cccc(O)c1)Nc1ccccc1Cl`, the inhibition at 200 ppm (Radish [1]) is reported as 93.3%, the inhibition at 100 ppm (Radish [2]) is reported as 80% and the inhibition at 50 ppm (Radish [3]) is reported as 56.7%.

Compound `O=C(O)/C=C/c1cccc(O)c1` has an inhibition at 200 ppm (Radish [1]) of 100%, an inhibition at 100 ppm (Radish [2]) of 86.7% and an inhibition at 50 ppm (Radish [3]) of 56.7%.

In the case of `O=C(O)/C=C/c1ccc([N+](=O)[O-])cc1`, the inhibition at 200 ppm (Radish [1]) is reported as 96.7%, the inhibition at 100 ppm (Radish [2]) is reported as 93.3% and the inhibition at 50 ppm (Radish [3]) is reported as 70%.

`O=C(/C=C/c1cccc(Cl)c1)Nc1ccccc1` [3-CHLORO-CINNAMANILIDE] was tested, and the inhibition at 200 ppm (Radish [1]) was 100%, the inhibition at 100 ppm (Radish [2]) was 93.3% and the inhibition at 50 ppm (Radish [3]) was 70%.

Compound `O=C(O)/C=C/c1cccc(Cl)c1` [3-CHLORO-CINNAMIC ACID] has an inhibition at 200 ppm (Radish [1]) of 93.3%, an inhibition at 100 ppm (Radish [2]) of 76.7% and an inhibition at 50 ppm (Radish [3]) of 53.3%.

Compound `O=C(/C=C/c1cccc(O)c1)Nc1ccccc1` [3-HYDROXY-CINNAMANILIDE] has an inhibition at 200 ppm (Radish [1]) of 100%, an inhibition at 100 ppm (Radish [2]) of 86.7% and an inhibition at 50 ppm (Radish [3]) of 53.3%.

`O=C(/C=C/c1cccc([N+](=O)[O-])c1)Nc1ccccc1` [3-NITRO-CINNAMANILIDE] showed an inhibition at 200 ppm (Radish [1]) of 100%, an inhibition at 100 ppm (Radish [2]) of 73.3% and an inhibition at 50 ppm (Radish [3]) of 70%.

Compound `O=C(O)/C=C/c1cccc([N+](=O)[O-])c1` [3-NITRO-CINNAMIC ACID] has an inhibition at 200 ppm (Radish [1]) of 100%, an inhibition at 100 ppm (Radish [2]) of 80% and an inhibition at 50 ppm (Radish [3]) of 70.3%.

`COc1ccc(/C=C/C(=O)Nc2ccccc2)cc1` [4-METHOXY-CINNAMANILIDE] gave an inhibition at 200 ppm (Radish [1]) of 93.3%, an inhibition at 100 ppm (Radish [2]) of 76.7% and an inhibition at 50 ppm (Radish [3]) of 53.3%.

`COc1ccc(/C=C/C(=O)O)cc1` [4-METHOXYCINNAMIC ACID] gave an inhibition at 200 ppm (Radish [1]) of 93.3%, an inhibition at 100 ppm (Radish [2]) of 66.7% and an inhibition at 50 ppm (Radish [3]) of 56.7%.

Work on `Cc1ccc(NC(=O)/C=C/c2ccccc2[N+](=O)[O-])cc1` [4-METHYL-(2'-NITRO)CINNAMANILIDE] yielded an inhibition at 200 ppm (Radish [1]) of 93.3%, an inhibition at 100 ppm (Radish [2]) of 80% and an inhibition at 50 ppm (Radish [3]) of 63.3%.

For `Cc1ccc(NC(=O)/C=C/c2cccc(Cl)c2)cc1` [4-METHYL-(3'-CHLORO)CINNAMANILIDE], the inhibition at 200 ppm (Radish [1]) was 93.3%, the inhibition at 100 ppm (Radish [2]) was 83.3% and the inhibition at 50 ppm (Radish [3]) was 70%.

`Cc1ccc(NC(=O)/C=C/c2cccc([N+](=O)[O-])c2)cc1` [4-METHYL-(3'-NITRO)CINNAMANILIDE] was tested, and the inhibition at 200 ppm (Radish [1]) was 96.7%, the inhibition at 100 ppm (Radish [2]) was 86.7% and the inhibition at 50 ppm (Radish [3]) was 73.3%.

Compound `O=C(/C=C/c1ccccc1[N+](=O)[O-])Nc1ccc([N+](=O)[O-])cc1` [4-NITRO-(2'-NITRO)CINNAMANILIDE] has an inhibition at 200 ppm (Radish [1]) of 96.7%, an inhibition at 100 ppm (Radish [2]) of 86.7% and an inhibition at 50 ppm (Radish [3]) of 73.3%.

Work on `O=C(/C=C/c1ccc([N+](=O)[O-])cc1)Nc1ccc([N+](=O)[O-])cc1` [4-NITRO-(4'-NITRO)CINNAMANILIDE] yielded an inhibition at 200 ppm (Radish [1]) of 93.3%, an inhibition at 100 ppm (Radish [2]) of 66.7% and an inhibition at 50 ppm (Radish [3]) of 60%.

With `O=C(/C=C/c1ccc([N+](=O)[O-])cc1)Nc1ccccc1` [4-NITRO-CINNAMANILIDE] the inhibition at 200 ppm (Radish [1]) was 100%, the inhibition at 100 ppm (Radish [2]) was 90% and the inhibition at 50 ppm (Radish [3]) was 83.3%.

With `O=C(O)/C=C/c1ccc(O)cc1` [COUMARIC ACID] the inhibition at 200 ppm (Radish [1]) was 100%, the inhibition at 100 ppm (Radish [2]) was 73.3% and the inhibition at 50 ppm (Radish [3]) was 53.3%.

Compound `CSc1nnc(C(C)(C)C)c(=O)n1N` [METRIBUZIN] has an inhibition at 200 ppm (Radish [1]) of 100%, an inhibition at 100 ppm (Radish [2]) of 93.3% and an inhibition at 50 ppm (Radish [3]) of 80%.
